A short description of data set [1]: [18F] isotope exchange of [18/19F]-(3), dissociation rate of [18F]-fluoride from the trifluoroborate. Particulars: 200 mM PO4, pH 7.5, 100 mM [19F]-NaF. The format is physicochemical. As for the experimental part:
[^18F] Isotope Exchange—Using the Low-Activity Radiochemical Synthesis of [^18/19F]-(3).
In order to assay the dissociation rate of [^18F]-fluoride from the trifluoroborate (3), The six aliquots of Sample-A (each 10 μL, 1.5 nmol [^18/19F]-(3), 0.45 μCi (t=184 min)) were diluted 30 fold into 300 μL of a 200 mM PO4, pH 7.5, 100 mM [^19F]—NaF solution at different times. A volume of 0.5 μL of each dilution was spotted on a TLC plate which is run 2 inches in a 5:95 NH4OH:ethanol developing solution. Each spot that was deposited on the plate had spent increasing amounts of time in the solution containing a vast excess of [^19F]-fluoride. Following autoradiography, a rate constant for the isotopic exchange of [^18F]-fluoride from [^18/19F]-(3) was calculated.

A short description of data set [2]: Rate of defluorination (18F/19F isotopic exchange) of aryltrifluoroborates, TLC autoradiography. The class given is physicochemical. Particulars: FIGS. 1-4, time points 0-180 minutes after labeling.
Procedure: A solution of boronic acid/ester at approximately 200 mM in 3 μl DMF is made, and 3 μL of aqueous fluoride at 800 mM added, comprising ˜1 mCi of carrier free ^18F (˜0.6 pmol of ^18F) and carrier ^19F in the form of KHF2 in 800 mM HOAc at pH 3-4, in a total volume of 10 μl at 10 mM total, providing 100 nmol of total fluoride at a pH of 4.5. Following a one hour labeling reaction at room temperature, the extent of fluorination as well as the stability with regards to isotopic exchange is evaluated by thin layer chromotography TLC as described below.
1 μL of the fluorination mix is diluted 1:100 in 200 mM phosphate buffer pH 7.5, 100 mM K^19F and allowed to equilibrate. A “zero” time point is taken, consisting of 1 μL of the fluorination mix added to the above phosphate-KF solution, mixed and then 0.5 μL of this dilution is immediately spotted on a TLC plate. […] A separate dilution is made for each time point. Spots are dried on the plate briefly in ambient air. […]
Once completed, an aliquot (1.5 μL) from the fluorination reaction solution is the added to a volume of 300 μL of a chase solution containing 200 mM phosphate and 100 mM KF (pH 7.5). […] Autoradiograms are then generated and analyzed by a phosphoimager. The densities of the free fluoride spot and the ArBF3 spot are quantified. […]

Each structure is given as a SMILES string.

The record followed here is US8574546B2, “Substituted aryl-fluoroborates as imaging agents” (The University of British Columbia, priority 2007, dated 2013).

For `O=C1N[C@H]2[C@H](CS[C@H]2CCCCC(=O)N2CCN(C(=O)c3c(F)cc(F)c([B-](F)(F)F)c3F)CC2)N1` [(3), (2-(1,3,5-trifluoro-4-(trifluoroboryl)benzoyl)piperazin-1-yl) biotin], the “period in which 10% of the fluoride is solvolytically liberated” value in data set [1] was at least 833 min.
In the case of `OB(O)c1cccc(F)c1F` [Compound 22], the “retention of the fluorine radioisotope (18F) on TLC autoradiogram” value in data set [2] is given as “retain the fluorine radioisotope longer than compounds 10 or 19”.
As for `O=C(O)c1cccc(B(O)O)c1` [Compound 12], the “retention of the fluorine radioisotope (18F) on TLC autoradiogram” value in data set [2] is given as “retain the fluorine radioisotope longer than compounds 10 or 19”.
